Results: patent US11541049B2, “Tetrahydroisoquinoline derivatives, preparation process and use thereof” (SICHUAN KELUN-BIOTECH BIOPHARMACEUTICAL CO., LTD., priority 2018, dated 2023)

Tests used:
[1] = target: human coagulation factor XIa (Homo sapiens (Human), UniProt P03951); assay: Inhibition of coagulation factor XIa (fluorogenic substrate, enzyme kinetic mode); assay type: biochemical
Description: The following procedures can be used to determine the in vitro inhibition of human coagulation factor XIa by the compound of the present disclosure, as indicated by IC50.
Enzyme: human coagulation factor XIa; manufacturer: Haemtech;
Substrate: Boc-Ile-Glu-Gly-Arg-AMC Acetate salt; manufacturer: Bachem;
Reaction buffer: 50 mM HEPES, 145 mM NaCl, 5 mM KCl, 0.1% BSA, pH 7.4;
The test compounds were dissolved in reaction buffer at different concentrations. 4 μl of coagulation factor XIa and 4 μl of the test compound were added to a 384 well plate, incubated at room temperature for 10 minutes after mixed thoroughly, and then 4 μl of substrate was added to initiate the reaction. For reading fluorescence signal value, enzyme kinetic mode was used. The wavelength of excitation light was selected to be 380 nm, and the wavelength of emission light was selected to be 460 nm. Read once per 30 seconds, and continuously read 20 cycles. Linear regression analysis of signal value-time was performed during the linear reaction period, and the slope was the reaction rate, and the enzyme activity inhibition rate was calculated according to the following formula. The half inhibitory concentration IC50 values of the compound were fitted using GraphPad Prism 5 software, and results are shown in Table 1. Inhibition rate %=(V0−Vi)/(V0−Vblank)×100.
In the formula: V0 is the reaction rate of the control well (using the same volume of reaction buffer without adding test compound), Vi is the reaction rate of test compound, Vblank is a blank well (using the same volume of reaction buffer without adding either enzyme or test compound).

[2] = target: human coagulation factor VIIa (Homo sapiens (Human), UniProt P08709); assay: Determination of inhibition of factor VIIa; assay type: biochemical
Description: Enzyme: human coagulation factor VIIa; manufacturer: Haematologic Technologies;
Substrate: Boc-VPR-AMC; R&D System;
Tissue factor: tissue factor F3; manufacturer: Sino Biological;
The test compounds were dissolved in assay buffer (50 mM Hepes, 150 mM NaCl, 5 mM CaCl2, pH 7.4) at a final concentration of 10 μM and 1 μM. Coagulation factor VIIa and tissue factor were mixed at an equimolar concentration. After incubation at 37° C. for 15 minutes, the test compound was further added. Incubation was conducted at room temperature for 10 minutes. Then the substrate (Boc-VPR-AMC) was added to initiate the reaction. For reading fluorescence signal value, enzyme kinetic mode was used. The wavelength of excitation light was 380 nm, and the wavelength of emission light was 460 nm. The IC50 was calculated in a similar manner to experimental Example 1.

rabbit plasma = assay: Effect on coagulation in vitro (aPTT and PT), rabbit plasma; details: final concentration 10NM (so in the source), n = 3
Source text: (§1) aPTT reagent (purchased from Sysmex);
(§2) PT reagent (purchased from Sysmex);
(§3) The coagulation pathway includes the extrinsic coagulation pathway and the intrinsic coagulation pathway. The parameter associated with the extrinsic coagulation pathway is prothrombin time, expressed as PT; the parameter associated with the intrinsic coagulation pathway is activated partial thromboplatin time, expressed as aPTT.
(§4) After anticoagulation, blood of different species (rabbit, human) was subjected to centrifugation. The upper layer of plasma was collected and divided into several aliquots. The test compounds were added to make the final concentration of test compound to be 10NM. Incubation was conducted at 37° C. after mixed thoroughly. Then the samples were put into a coagulation analyzer (Sysmex CA1500, Sysmex, Japan) for the aPTT and PT assays. Blank plasma (without test compound) was used as a reference, and the ratio values of aPTT and PT of all samples and blank plasmas were analyzed, the results are shown in table 3.

human plasma = assay: Effect on coagulation in vitro (aPTT and PT), human plasma; details: final concentration 10NM (so in the source), n = 3
Source text: as §1, §2, §3, §4

[3] = Pharmacokinetics study in male SD rats, intravenous injection; assay type: in vivo
Description: (§5) Pharmacokinetics characteristics were examined by administering compound of the present disclosure and the reference compound (BMS-962212) to male SD rats through intravenous injection (IV). Blood was collected at various time points after administration. The blood was anticoagulated with EDTA-K2. Plasma samples were obtained by centrifugation within 30 min after blood collection, and retained at −80° C. The plasma samples were processed to precipitate the proteins and then analyzed by LC-MS/MS.
(§6) The pharmacokinetic parameters were calculated using WinNonlin 6.3 software by employing a non-compartmental model.

[4] = Pharmacokinetics study in male rabbits, intravenous injection; assay type: in vivo
Description: as §5, with “properties” for “characteristics”, “rabbits” for “SD rats”, “centrifugation,” for “centrifugation within 30 min after blood collection,”
as §6

[5] = Pharmacokinetics study in Beagle dogs, intravenous injection; assay type: in vivo, Beagle dog
Description: as §5, with “properties” for “characteristics”, “Beagle dog” for “male SD rats”, “centrifugation,” for “centrifugation within 30 min after blood collection,”
as §6

[6] = Repeated dose toxicity study in SD rats, intravenous infusion, daily for 14 days; assay type: in vivo; details: rat, in vivo, daily for 14 days, SD rats, read-out: No-observed-adverse-effect level (NOAEL)
Description: The administration was repeated daily for 14 days, while clinical observation, body weight and food intake were recorded. […] Observation by gross anatomy and examination of histopathology were also conducted.

[7] = Blood exposure after intravenous administration in various animal species (summary); assay type: in vivo; details: rat, rabbit, dog
Description: as §5
as §5, with “properties” for “characteristics”, “rabbits” for “SD rats”, “centrifugation,” for “centrifugation within 30 min after blood collection,”
as §5, with “properties” for “characteristics”, “Beagle dog” for “male SD rats”, “Plasma samples were obtained by centrifugation within 30 min after blood collection, and retained at −80° C.” left out

in vivo = details: SD, rat, iv
Description: The clinical observation was carried out for 7 days after a single dose, and the body weight of the animals were measured. On the 8th day, blood samples were taken after anesthesia for detection of hematology, blood biochemistry, coagulation and other indicators. Observation was also conducted by gross anatomy.

[8] = male, SD, rat, plasma, rats, 1 mg/kg

human coagulation factor VIIa, sequence (P08709 whole entry, looked up): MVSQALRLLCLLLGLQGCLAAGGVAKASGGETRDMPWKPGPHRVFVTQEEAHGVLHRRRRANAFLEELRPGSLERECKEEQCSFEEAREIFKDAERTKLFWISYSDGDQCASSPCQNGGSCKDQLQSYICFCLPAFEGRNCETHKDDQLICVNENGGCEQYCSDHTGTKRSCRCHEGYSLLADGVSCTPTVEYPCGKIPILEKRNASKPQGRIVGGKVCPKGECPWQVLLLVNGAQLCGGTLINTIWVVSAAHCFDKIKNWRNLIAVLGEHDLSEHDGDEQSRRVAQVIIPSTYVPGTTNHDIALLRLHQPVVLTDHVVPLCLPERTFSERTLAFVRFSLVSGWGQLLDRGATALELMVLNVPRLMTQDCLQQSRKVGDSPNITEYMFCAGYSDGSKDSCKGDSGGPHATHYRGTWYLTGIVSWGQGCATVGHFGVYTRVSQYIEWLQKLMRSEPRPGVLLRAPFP
human coagulation factor VIIa, sequence (P08709 whole entry, looked up): as above
human coagulation factor VIIa, sequence (P13726 whole entry partner, looked up): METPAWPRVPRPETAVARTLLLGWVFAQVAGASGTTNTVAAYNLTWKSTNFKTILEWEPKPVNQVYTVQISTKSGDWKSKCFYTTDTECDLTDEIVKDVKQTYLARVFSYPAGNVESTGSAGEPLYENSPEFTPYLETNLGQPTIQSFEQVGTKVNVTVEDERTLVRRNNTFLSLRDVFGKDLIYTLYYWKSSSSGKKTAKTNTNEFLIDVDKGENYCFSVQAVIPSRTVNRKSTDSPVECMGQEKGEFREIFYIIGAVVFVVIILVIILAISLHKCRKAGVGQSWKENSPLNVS
human coagulation factor XIa, sequence (P03951 388-625): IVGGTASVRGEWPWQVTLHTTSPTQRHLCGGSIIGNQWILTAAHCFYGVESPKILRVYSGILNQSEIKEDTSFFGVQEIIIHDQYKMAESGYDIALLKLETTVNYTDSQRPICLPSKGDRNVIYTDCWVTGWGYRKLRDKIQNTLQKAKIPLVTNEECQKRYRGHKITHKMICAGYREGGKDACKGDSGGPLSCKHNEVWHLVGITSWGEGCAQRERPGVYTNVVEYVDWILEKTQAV
human coagulation factor XIa, sequence (P03951 19-387): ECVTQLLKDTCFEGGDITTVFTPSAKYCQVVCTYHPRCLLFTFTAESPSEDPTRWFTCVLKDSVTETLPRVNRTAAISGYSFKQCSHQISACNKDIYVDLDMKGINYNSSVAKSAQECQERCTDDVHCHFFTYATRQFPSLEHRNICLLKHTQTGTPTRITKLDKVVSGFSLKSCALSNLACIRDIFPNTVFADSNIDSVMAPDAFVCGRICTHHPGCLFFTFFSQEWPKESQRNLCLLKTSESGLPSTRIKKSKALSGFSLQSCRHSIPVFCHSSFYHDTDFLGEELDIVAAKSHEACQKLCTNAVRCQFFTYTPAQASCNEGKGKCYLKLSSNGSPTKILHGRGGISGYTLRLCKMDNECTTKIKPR

For N[C@@H](CCCCNC(=O)CN1CC=C(c2cccc3c2CCN(C(=O)[C@H]2CC(c4cccc(Cl)c4F)=NO2)[C@@H]3C(=O)Nc2ccc(C(=O)O)cc2)CC1)C(=O)O [Example 5, 4-((S)-5-(1-(2-(((S)-5-amino-5-carboxypentyl)amino)-2-oxoethyl)-1,2,3,6-tetrahydropyridin-4-yl)-2-((R)-3-(3-chloro-2-fluorophenyl)-4,5-dihydroisoxazole-5-carbonyl)-1,2,3,4-tetrahydroisoquinoline-1-carboxamido)benzoic acid], the IC50 [1] was 0.16 ± 0.02 nM, the “inhibitory effect on coagulation factor VIIa (in words)” value [2] was “no significant inhibitory effect” and the IC50 ([2]; tested at final concentration of 10 μM and 1 μM, with tissue factor) was over 10000 nM. The “Ratio of PT to that of blank plasma” value (rabbit plasma) was 1.00, the “Ratio of aPTT to that of blank plasma” value (rabbit plasma) was 1.84 and the “Ratio of PT to that of blank plasma” value (human plasma) was 1.03. The “Ratio of aPTT to that of blank plasma” value (human plasma) was 2.95, the AUC(0-inf) [3, 8] was 2890 ± 473 ng·h/mL and the AUC(0-t) [3, 8] was 2890 ± 473 ng·h/mL. For the same molecule, the Cmax [3, 8] was 2990 ± 629 ng/mL, the clearance [3, 8] was 5.88 ± 1.07 mL/min/kg and the half-life [3, 8] was 0.78 ± 0.06 h. The “AUClast relative to that of the reference compound” value (from here on “AUClast relative to that”) ([3]; rat plasma, 1 mg/kg vs 5 mg/kg reference, dosage normalized) was 3.53 times, the “T1/2 relative to that of the reference compound” value (“T1/2 relative to that” for short) ([3]; rat, 1 mg/kg vs 5 mg/kg reference) was 4.11 times and the “Cmax relative to that of the reference compound” value (from here on “Cmax relative to that”) ([3]; rat, 1 mg/kg vs 5 mg/kg reference, dosage normalized) was 1.35 times. The “AUClast relative to that” value ([4]; 1 mg/kg each) was 12.04 times, the “Cmax relative to that” value ([4]; 1 mg/kg each) was 4.74 times and the “T1/2 relative to that” value ([4]; 1 mg/kg each) was 2.65 times. It also gave an AUC(0-inf) ([4]; male, rabbit, plasma, 1 mg/kg) of 5740 ± 2270 ng·h/mL, an AUC(0-t) ([4]; male, rabbit, plasma, 1 mg/kg) of 5730 ± 2270 ng·h/mL and a Cmax ([4]; male, rabbit, plasma, 1 mg/kg) of 6950 ± 1900 ng/mL. The Vd ([4]; male, rabbit, plasma, 1 mg/kg) was 0.3 ± 0.09 L/kg, the clearance ([4]; male, rabbit, plasma, 1 mg/kg) was 3.18 ± 1.06 mL/min/kg and the half-life ([4]; male, rabbit, plasma, 1 mg/kg) was 1.14 ± 0.26 h. The “apparent volume of distribution as share of that of the reference compound” value ([4]; same dosage 1 mg/kg) was 23%, the “AUClast relative to that” value ([5]; 0.5 mg/kg each) was 20.38 times and the “Cmax relative to that” value ([5]; 0.5 mg/kg each) was 2.67 times. The “T1/2 relative to that” value ([5]; 0.5 mg/kg each) was 7.25 times, the AUC(0-inf) ([5]; dog, plasma, 0.5 mg/kg) was 18100 ± 683 ng·h/mL and the AUC(0-t) ([5]; dog, plasma, 0.5 mg/kg) was 17200 ± 370 ng·h/mL. It also gave a Cmax ([5]; dog, plasma, 0.5 mg/kg) of 3950 ± 808 ng/mL, a Vd ([5]; dog, plasma, 0.5 mg/kg) of 0.24 ± 0.02 L/kg and a clearance ([5]; dog, plasma, 0.5 mg/kg) of 0.46 ± 0.02 mL/min/kg. The half-life ([5]; dog, plasma, 0.5 mg/kg) was 6.02 ± 0.8 h, the “apparent volume of distribution as share of that of the reference compound” value ([5]; same dosage 0.5 mg/kg) was 34% and the NOAEL at 14 days [6] was 60 mg/kg. For the same molecule, the “exposure in blood relative to that of BMS-962212” value [7] was 3-25 times and the MTD at 7 days (in vivo) was at least 200 mg/kg.
